This is an account of results in article PMC11279465, “Dual Inhibitors of P-gp and Carbonic Anhydrase XII (hCA XII) against Tumor Multidrug Resistance with Piperazine Scaffold” (Molecules, 2024).

One test concerns HT29/DOX cells. The test can be described thus: Intrinsic cytotoxicity (MTT). The class given is cell-based, human. Particulars: compound alone at 1 µM; HT29/DOX; 48 h. The method, then: (§1) All compounds were preliminarily studied to evaluate their intrinsic cytotoxicity at different concentrations (from 10 nM to 50 µM) in the parental HT29 and A549 and the resistant HT29/DOX and A549/DOX cells using the MTT assay.
(§2) The intrinsic toxicity of the studied compounds was determined by an MTT assay. K562 and K562/DOX were exposed for 72 h with compounds at 1 and 3 µM concentrations while HT29, A549, HT29/DOX and A549/DOX cells were incubated for 48 h with compounds used at different concentrations (from 10 nM to 50 µM). The percentage of growth compared to the untreated control was transformed into histograms with the GraphPad Prism 5 program. […]

In another test the test system is A549/DOX cells. Put plainly: Intrinsic cytotoxicity (MTT). The class given is cell-based, human. Particulars: compound alone at 1 µM; A549/DOX; 48 h. As for the experimental part: as §1, §2
For the next test, the target named is T1, hCA I (Homo sapiens, UniProt P00915).
T1 construct: made in house
Put plainly: CA inhibition, stopped-flow CO2 hydrase assay. The test is classed as biochemical. The note with it: stopped-flow technique; incubation time 6 h; mean of 3 assays. The method, then:
(§3) Four hCA isoforms were used in this assay: the cytosolic hCA I and II and the tumor-associated transmembrane hCA IX and XII isoforms. Acetazolamide (AAZ) was used as a standard inhibitor.
(§4) An SX.18MV-R Applied Photophysics (Oxford, UK) stopped-flow instrument has been used to assay the catalytic/inhibition of various CA isozymes. […] Saturated CO2 solutions in water at 25 °C were used as substrate. Stock solutions of inhibitors were prepared at a concentration of 10 μM (in DMSO-water 1:1, v/v) and dilutions up to 0.01 nM were carried out with the assay buffer mentioned above. […] Inhibitor and enzyme solutions were preincubated together for 6 h at room temperature prior to assay in order to allow for the formation of the E-I complex. […] The inhibition constants were obtained by non-linear least-squares methods using the Cheng–Prusoff equation, as reported earlier, and represent the mean from at least three different determinations.

Another test deals with T2, hCA XII (Homo sapiens, UniProt O43570).
T2 construct: made in house
The test can be described thus: CA inhibition, stopped-flow CO2 hydrase assay. The class given is biochemical. The note with it: stopped-flow technique; incubation time 6 h; mean of 3 assays. As for the experimental part: as §3, §4

The next test concerns the target T3, hCA II (Homo sapiens, UniProt P00918).
T3 construct: made in house
Put plainly: CA inhibition, stopped-flow CO2 hydrase assay. Particulars: stopped-flow technique; incubation time 6 h; mean of 3 assays. The test is classed as biochemical. The method, then:
as §3, §4

The target in a further test is T4, hCA IX (Homo sapiens, UniProt Q16790).
T4 construct: made in house
The test can be described thus: CA inhibition, stopped-flow CO2 hydrase assay. The class given is biochemical. Particulars: stopped-flow technique; incubation time 6 h; mean of 3 assays. As for the experimental part: as §3, §4

In a further test the test system is HT29 cells. The test can be described thus: Intrinsic cytotoxicity (MTT). Particulars: compound alone at 1 µM; parental HT29; 48 h. The test is classed as cell-based, human. As for the experimental part:
as §1
(§5) The intrinsic toxicity of the studied compounds was determined by an MTT assay. K562 and K562/DOX were exposed for 72 h with compounds at 1 and 3 µM concentrations while HT29, A549, HT29/DOX and A549/DOX cells were incubated for 48 h with compounds used at different concentrations (from 10 nM to 50 µM). The percentage of growth compared to the untreated control was transformed into histograms with the GraphPad Prism 5 program.

A further test relates to A549 cells. The test can be described thus: Intrinsic cytotoxicity (MTT). The test is classed as cell-based, human. The note with it: compound alone at 1 µM; parental A549; 48 h. As for the experimental part: as §1, §5
A further test concerns K562/DOX cells. The test can be described thus: Doxorubicin cytotoxicity enhancement assay (MTT). The test is classed as cell-based, human. The note with it: 72 h. The method, then: K562 is a highly undifferentiated erythroleukemia cell line. The doxorubicin-resistant K562/DOX cells overexpress almost exclusively the transporter membrane protein P-gp.
K562/DOX cells were incubated for 72 h with different concentrations of doxorubicin in combination with 1 or 3 µM of all compounds. […] HT29, A549, HT29/DOX and A549/DOX cells were incubated for 48 h with 5 µM doxorubicin, alone or in combination with 1 or 3 µM of selected compounds. Cell viability of the cell lines was measured by the MTT assay, using a Synergy HT microplate spectrofluorometer (Bio-Tek Instruments, Winooski, VT, USA). The absorbance of untreated cells was considered 100%; results were expressed as a percentage of viable treated cells versus the control untreated cells.

The Ki is a measure of affinity in units of concentration, obtained from inhibition or displacement. A high value points to a looser hold on the target.

T2 sequence (O43570 25-354): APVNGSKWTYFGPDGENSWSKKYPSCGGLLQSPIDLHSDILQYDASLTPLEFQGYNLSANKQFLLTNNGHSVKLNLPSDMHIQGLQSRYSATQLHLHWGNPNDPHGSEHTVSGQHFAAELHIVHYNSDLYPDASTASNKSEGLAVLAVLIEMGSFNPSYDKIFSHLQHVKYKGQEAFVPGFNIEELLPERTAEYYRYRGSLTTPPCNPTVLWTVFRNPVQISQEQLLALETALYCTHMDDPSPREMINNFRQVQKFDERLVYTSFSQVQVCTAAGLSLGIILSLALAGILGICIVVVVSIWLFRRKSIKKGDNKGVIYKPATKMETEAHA
T1 sequence (P00915 whole entry): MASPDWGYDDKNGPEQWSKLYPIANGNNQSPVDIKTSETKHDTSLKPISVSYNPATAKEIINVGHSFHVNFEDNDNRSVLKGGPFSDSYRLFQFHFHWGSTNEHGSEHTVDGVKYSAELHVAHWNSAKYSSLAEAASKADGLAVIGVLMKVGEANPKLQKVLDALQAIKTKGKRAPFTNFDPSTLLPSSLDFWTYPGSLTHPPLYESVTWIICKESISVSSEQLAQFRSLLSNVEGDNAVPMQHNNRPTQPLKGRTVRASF

As for `COc1ccc(C(CCCN2CCN(CCCCOc3ccc4oc(=O)cc(C)c4c3)CC2)c2ccc(OC)cc2)cc1` [Compound 36, 6-(4-(4-(4,4-Bis(4-methoxyphenyl)butyl)piperazin-1-yl)butoxy)-4-methyl-2H-chromen-2-one], the toxicity in the test on HT29/DOX cells, in the test on A549/DOX cells, in the test with HT29 cells and with A549 cells was at least 35% in each case. In addition, the inhibitory constant (Ki) on hCA I was over 10000 nM; at hCA XII it was 298 nM; on hCA II, over 10000 nM; on hCA IX, 332 nM.
Regarding `COc1cc(/C=C/CN2CCN(CCCCOc3ccc4oc(=O)cc(C)c4c3)CC2)cc(OC)c1OC` [Compound 12, (E)-4-Methyl-6-(4-(4-(3-(3,4,5-trimethoxyphenyl)allyl)piperazin-1-yl)butoxy)-2H-chromen-2-one], the toxicity with HT29/DOX cells, in the test on A549/DOX cells, in the test with HT29 cells and in the test with A549 cells was at least 35% each time. Also, the Ki on hCA I was over 10000 nM; on hCA XII it was 140 nM; at hCA II, over 10000 nM; on hCA IX, 104 nM. For the same compound, the “RF (Reversal Fold: IC50 of doxorubicin alone / in presence of modulator)” value with K562/DOX cells (compound at 1 µM) is 1.9; with K562/DOX cells (compound at 3 µM), 2.7.
With `COc1ccc(C(CCCN2CCN(CCCOc3ccc4oc(=O)cc(C)c4c3)CC2)c2ccc(OC)cc2)cc1` [Compound 35, 6-(3-(4-(4,4-Bis(4-methoxyphenyl)butyl)piperazin-1-yl)propoxy)-4-methyl-2H-chromen-2-one], the toxicity in the test on HT29/DOX cells, in the test on A549/DOX cells, in the test on HT29 cells and in the test with A549 cells was at least 35% each time. The Ki is over 10000 nM at hCA I, 335 nM on hCA XII, over 10000 nM on hCA II and 523 nM at hCA IX. Besides, in the test on K562/DOX cells (compound at 3 µM), the “RF (Reversal Fold: IC50 of doxorubicin alone / in presence of modulator)” value stood at 14.3.
In the case of `COc1cc(CN2CCN(CCCCOc3ccc4ccc(=O)oc4c3)CC2)cc(OC)c1OC` [Compound 15, 7-(4-(4-(3,4,5-Trimethoxybenzyl)piperazin-1-yl)butoxy)-2H-chromen-2-one], the toxicity in the test with HT29/DOX cells and in the test with A549/DOX cells was at least 35% each time. Besides, the Ki at hCA I is over 10000 nM; on hCA XII, 42.9 nM; on hCA II, over 10000 nM; at hCA IX it was 29 nM. Also, the “RF (Reversal Fold: IC50 of doxorubicin alone / in presence of modulator)” value is given as 1.2 with K562/DOX cells (compound at 1 µM) and 2.3 in the test with K562/DOX cells (compound at 3 µM).
For `COc1ccc(C(CCCN2CCN(CCCOc3ccc4c(C)cc(=O)oc4c3)CC2)c2ccc(OC)cc2)cc1` [Compound 29, 7-(3-(4-(4,4-Bis(4-methoxyphenyl)butyl)piperazin-1-yl)propoxy)-4-methyl-2H-chromen-2-one], the toxicity in the test with HT29/DOX cells, in the test on A549/DOX cells, in the test with HT29 cells and in the test with A549 cells was at least 35% in each case. The Ki is over 10000 nM at hCA I, 91.5 nM on hCA XII, over 10000 nM at hCA II and 149 nM at hCA IX.
For `COc1cc(/C=C/CN2CCN(CCCOc3ccc4oc(=O)ccc4c3)CC2)cc(OC)c1OC` [Compound 8, (E)-6-(3-(4-(3-(3,4,5-Trimethoxyphenyl)allyl)piperazin-1-yl)propoxy)-2H-chromen-2-one], the toxicity in the test with HT29/DOX cells and with A549/DOX cells was at least 35% each time. The Ki at hCA I was over 10000 nM; at hCA XII it was 22.9 nM; at hCA II, over 10000 nM; at hCA IX, 40.7 nM. Moreover, the “RF (Reversal Fold: IC50 of doxorubicin alone / in presence of modulator)” value with K562/DOX cells (compound at 1 µM) and in the test with K562/DOX cells (compound at 3 µM) was 2.0 each time.
